In brackets after ≈: the same amount, converted by molar mass.
Legend:
[1] = system: Staphylococcus aureus FDA 209P; test: Minimal inhibitory concentration (agar); assay type: cell-based; details: FDA209P, 48 h, nutrient agar, pH 7.0, 2 days, 37° C.
[2] = system: Bacillus subtilis PCI 219; test: Minimal inhibitory concentration (agar); assay type: cell-based; details: Bacillus subtilis, PCI219, 48 h, pH 7, nutrient agar, pH 7.0, 2 days, 37° C.; read-out: MIC
Method: (§1) Medium N nutrient agar (pH 7.0, 2 days, 37° C.)
(§2) MIC Minimal inhibitory concentration
(§3) N nutrient agar (pH 7.0, 2 days, 37° C.)

[3] = system: Escherichia coli NIHJ (JC-2); test: Minimal inhibitory concentration (agar); assay type: cell-based; details: 48 h, pH 7, nutrient agar, pH 7.0, 2 days, 37° C.
Method: as §1, §2, §3

Sarcina lutea PCI 1001 = test: Minimal inhibitory concentration (agar); assay type: cell-based; details: Micrococcus luteus, PCI1001, 48 h, pH 7, nutrient agar, pH 7.0, 2 days, 37° C.; read-out: MIC
Method: as §1, §2, §3

[4] = system: Staphylococcus aureus FDA 209P (JC-1); test: Minimal inhibitory concentration (agar); assay type: cell-based; details: FDA209P, 48 h, nutrient agar, pH 7.0, 2 days, 37° C.
Method: as §1, §2, §3

Salmonella typhimurium = test: Minimal inhibitory concentration (agar); assay type: cell-based; details: Salmonella enterica, 48 h, nutrient agar, pH 7.0, 2 days, 37° C.
Candida albicans = test: Minimal inhibitory concentration (agar); assay type: cell-based; details: Candida albicans, 96 h, pH 6.4, potato agar, pH 6.4, 4 days, 27° C.; read-out: MIC
Method: (§4) P potato agar (pH 6.4, 4 days, 27° C.)
as §2
(§5) Minimal inhibitory concentration was assayed by agar dilution method
(§6) (potato agar, pH 6.4, 27° C., 4 days).

Trichophyton rubrum = test: Minimal inhibitory concentration (agar); assay type: cell-based; details: Trichophyton rubrum, 96 h, pH 6.4, potato agar, pH 6.4, 4 days, 27° C.; read-out: MIC
Method: as §4, §2, §5, §6

Trichophyton schoenleini = test: Minimal inhibitory concentration (agar); assay type: cell-based; details: Trichophyton, 96 h, pH 6.4, potato agar, pH 6.4, 4 days, 27° C.; read-out: MIC
Method: as §4, §2, §5, §6

Saccharomyces sake = test: Minimal inhibitory concentration (agar); assay type: cell-based; details: Saccharomyces, 96 h; potato agar, pH 6.4, 4 days, 27° C.; read-out: MIC
[5] = system: Aspergillus niger ATCC 6275; test: Minimal inhibitory concentration (agar); assay type: cell-based; details: ATCC6275, 96 h, potato agar, pH 6.4, 4 days, 27° C., read-out: MIC
Piricularia oryzae = test: microbe, parasite or virus in culture; assay type: cell-based; details: 96 h, pH 6.4, potato agar, pH 6.4, 4 days, 27° C.
Microsporum gypseum 704 = test: Minimal inhibitory concentration (agar); assay type: cell-based; details: Nannizzia gypsea, 704, 96 h; potato agar, pH 6.4, 4 days, 27° C.
Trichophyton asteroides = test: Minimal inhibitory concentration (agar); assay type: cell-based; details: Trichophyton, 96 h; potato agar, pH 6.4, 4 days, 27° C.; read-out: MIC
Trichophyton ferrugineum = test: Minimal inhibitory concentration (agar); assay type: cell-based; details: Microsporum ferrugineum, 96 h; potato agar, pH 6.4, 4 days, 27° C.; read-out: MIC
[6] = system: Trichophyton interdigitale; test: Minimal inhibitory concentration (agar); assay type: cell-based; details: Trichophyton interdigitale, 96 h; potato agar, pH 6.4, 4 days, 27° C.; read-out: MIC
[7] = system: Trichophyton mentagrophytes; test: Minimal inhibitory concentration (agar); assay type: cell-based; details: 96 h, pH 6.4, potato agar, pH 6.4, 4 days, 27° C.
Trichophyton pedis 804 = test: Minimal inhibitory concentration (agar); assay type: cell-based; details: Trichophyton pedis, 804, 96 h, pH 6.4
Trichophyton purpureum = test: Minimal inhibitory concentration (agar); assay type: cell-based; details: 96 h, pH 6.4
Trichophyton roseum = test: Minimal inhibitory concentration (agar); assay type: cell-based; details: Trichophyton, 96 h, pH 6.4, potato agar, pH 6.4, 4 days, 27° C.; read-out: MIC
Trichophyton violaceum = test: Minimal inhibitory concentration (agar); assay type: cell-based; details: Trichophyton violaceum, 96 h; potato agar, pH 6.4, 4 days, 27° C.; read-out: MIC
[8] = system: Mycobacterium smegmatis ATCC 607; test: Minimal inhibitory concentration (agar); assay type: cell-based; details: Mycolicibacterium smegmatis, ATCC607, 48 h; nutrient agar, pH 7.0, 2 days, 37° C.
[9] = system: Aspergillus fumigatus IAM 2162; test: Minimal inhibitory concentration (agar); assay type: cell-based; details: IAM2162, 96 h, potato agar, pH 6.4, 4 days, 27° C.
Method: | P potato agar (pH 6.4, 4 days, 27° C.)

[10] = system: Aerobacter aerogenes IAM 1183; test: Minimal inhibitory concentration (agar); assay type: cell-based; details: Klebsiella aerogenes, IAM1183, 48 h; nutrient agar, pH 7.0, 2 days, 37° C.
Method: as §3

Bacillus cereus T = test: Minimal inhibitory concentration (agar); assay type: cell-based; details: 48 h, nutrient agar, pH 7.0, 2 days, 37° C.
Method: as §3

[11] = system: Corynebacterium paurometabolum; test: Minimal inhibitory concentration (agar); assay type: cell-based; details: Tsukamurella paurometabola, 48 h; nutrient agar, pH 7.0, 2 days, 37° C.
Method: as §3

Proteus mirabilis = test: Minimal inhibitory concentration (agar); assay type: cell-based; details: 48 h, nutrient agar, pH 7.0, 2 days, 37° C.
Method: as §3

[12] = system: Proteus vulgaris IFO 3167; test: Minimal inhibitory concentration (agar); assay type: cell-based; details: IFO3167, 48 h, nutrient agar, pH 7.0, 2 days, 37° C.
Method: as §3

[13] = system: Pseudomonas aeruginosa P-3; test: Minimal inhibitory concentration (agar); assay type: cell-based; details: P3, 48 h, nutrient agar, pH 7.0, 2 days, 37° C.
Method: as §3

Shigella sonnei E 33 = test: Minimal inhibitory concentration (agar); assay type: cell-based; details: E33, 48 h, nutrient agar, pH 7.0, 2 days, 37° C.
Method: as §3

[14] = system: Staphylococcus aureus FS 1227 (PC-R); test: Minimal inhibitory concentration (agar); assay type: cell-based; details: 48 h, nutrient agar, pH 7.0, 2 days, 37° C., penicillin resistant strain
Method: as §3

[15] = system: Staphylococcus aureus KB 61 (R-TC, EM); test: Minimal inhibitory concentration (agar); assay type: cell-based; details: 48 h, pH 7
Method: as §3

[16] = system: Staphylococcus aureus KB 64 (R-TC, EM); test: Minimal inhibitory concentration (agar); assay type: cell-based; details: 48 h, pH 7
Method: as §3

[17] = system: Mycoplasma gallisepticum KP-13; test: Antimycoplasma activity, inhibition zone; assay type: cell-based; details: Eiken PPLO agar, pH 7.8, 8 days, 37° C.
Method: E Eiken PPLO agar (pH 7.8, 8 days, 37° C.)
(§7) Nanaomycin A and derivatives thereof according to the present invention are assayed in a similar manner to that designated as the paper disc method by Itoh, et al [J. of Antibiotics, 24, 855-859 (1971)], for example, as follows: […]

[18] = system: Acholeplasma laidlawii (A); test: Antimycoplasma activity, inhibition zone; assay type: cell-based; details: Hokken PPLO agar, pH 7.8, 8 days, 37° C.
Method: H Hokken PPLO agar (pH 7.8, 8 days, 37° C.)
as §7

[19] = system: mycoplasma, Gram-positive bacteria and tricophyton; test: Antimicrobial activity (in words); assay type: cell-based
[20] = system: parasite of the genus Tricophyton; test: Therapeutic effect on infectious diseases in guinea pigs and cattle; assay type: in vivo
Method: When dermatomycosis of cattle caused by mass infection of Trichophyton verrucosum is treated with nanaomycin A, nanaomycin A is dissolved or suspended in a suitable carrier, for example, olive oil, and is coated on the affected part directly with or without removal of the scales. […] The results obtained by once-coating of nanaomycin A and by twice-coating (the second coating is carried out a week after the first coating) are shown in Tables 2 and 3, respectively.

Solubility = assay type: physicochemical

Molecule COC(=O)CC1CC2=C(C(=O)c3c(O)cccc3C2=O)C(C)O1 (centres unmarked) [Nanaomycin A methyl ester, nanaomycin A methyl ester] has an MIC [1] of 12.5 µg/mL (≈ 39.5 µM), an MIC [2] of 25 µg/mL (≈ 79 µM) and an MIC [3] greater than 100 µg/mL. It also gave an MIC (Sarcina lutea PCI 1001) of 25 µg/mL (≈ 79 µM), an MIC [4] of 25 µg/mL (≈ 79 µM) and an MIC (Salmonella typhimurium) greater than 100 µg/mL. The MIC (Candida albicans) was greater than 100 µg/mL, the MIC (Trichophyton rubrum) was less than 0.2 µg/mL and the MIC (Trichophyton schoenleini) was less than 0.2 µg/mL. The MIC (Saccharomyces sake) was 50 µg/mL (≈ 158 µM), the MIC [5] was greater than 100 µg/mL and the MIC (Piricularia oryzae) was 12.5 µg/mL (≈ 39.5 µM). The MIC (Microsporum gypseum 704) was 1.6 µg/mL (≈ 5.06 µM), the MIC (Trichophyton asteroides) was 12.5 µg/mL (≈ 39.5 µM) and the MIC (Trichophyton ferrugineum) was 12.5 µg/mL (≈ 39.5 µM). It also gave an MIC [6] of 12.5 µg/mL (≈ 39.5 µM), an MIC [7] of 6.3 µg/mL (≈ 19.9 µM) and an MIC (Trichophyton pedis 804) of 12.5 µg/mL (≈ 39.5 µM). For the same molecule, the MIC (Trichophyton purpureum) was 12.5 µg/mL (≈ 39.5 µM), the MIC (Trichophyton roseum) was 0.8 µg/mL (≈ 2.53 µM) and the MIC (Trichophyton violaceum) was 12.5 µg/mL (≈ 39.5 µM). The MIC [8] was 12.5 µg/mL (≈ 39.5 µM), the MIC [9] was 100 µg/mL (≈ 316 µM) and the MIC [10] was greater than 100 µg/mL. It also gave an MIC (Bacillus cereus T) of 25 µg/mL (≈ 79 µM), an MIC [11] of 25 µg/mL (≈ 79 µM) and an MIC (Proteus mirabilis) greater than 100 µg/mL. The MIC [12] was greater than 100 µg/mL, the MIC [13] was greater than 100 µg/mL and the MIC (Shigella sonnei E 33) was greater than 100 µg/mL. It also gave an MIC [14] of 25 µg/mL (≈ 79 µM), an MIC [15] of 12.5 µg/mL (≈ 39.5 µM) and an MIC [16] of 12.5 µg/mL (≈ 39.5 µM). The “Inhibition Zone” value [17] was 28.5 mm, the “Inhibition Zone” value [18] was “none” and the antimicrobial activity [19] was “generally lower than those of other derivatives of nanaomycin A”. For the same molecule, the “therapeutic effect on Trichophyton infectious diseases” value [20] was “inferior to those of nanaomycin A and acetylnanaomycin A”, the Solubility in ether (Solubility; ether) was “Soluble” and the “Solubility in methanol, ethanol, ethylacetate, chloroform and acetone” value (Solubility; methanol, ethanol, ethylacetate, chloroform, acetone) was “Soluble”. The “Solubility in n-hexane and petroleum ether” value (Solubility; n-hexane, petroleum ether) was “Insoluble” and the Solubility in water (Solubility; water) was “Insoluble”.

— patent US4324728A, “Compound nanaomycin A and derivatives thereof and a process for producing the same” (The Kitasato Institute, priority 1976, dated 1982)
